Read-outs that look alike come from different tables or passages of the source.

For data set [1], the system named is human umbilical vein endothelial cells (HUVEC). The data set can be described thus: HUVEC proliferation assay (VEGF-stimulated, MTT). In kind it is cell-based. Particulars: Homo sapiens, HUVEC, Table 1.
A further data set can be described thus: in vitro. In kind it is in vitro ADME, human. The following applies: human liver microsomes, 5 µM test compound, 37 °C, 2 h. On the procedure:
Compound metabolism in human liver microsomes was measured by LC-MS analytical assay procedures as follows. First, human liver microsomes (HLM) were thawed and diluted to 5 mg/mL with cold 100 mM potassium phosphate (KPO4) buffer. Appropriate amounts of KPO4 buffer, NADPH-regenerating solution (containing B-NADP, glucose-6-phosphate, glucose-6-phosphate dehydrogenase, and MgCl2), and HLM were preincubated in 13 x 100 mm glass tubes at 37 C for 10 min. (3 tubes per test compound--triplicate). Test compound (5 µM final) was added to each tube to initiate reaction and was mixed by gentle vortexing, followed by incubation at 37 °C. At t=0, 2 h, a 250-µL sample was removed from each incubation tube to separate 12 x 75 mm glass tubes containing 1 mL ice-cold acetonitrile with 0.05 µM reserpine. […] Supernatant was transferred to new 12 x 75 mm glass tubes and evaporated by Speed-Vac centrifugal vacuum evaporator. Samples were reconstituted in 200 µL 0.1 % formic acid/acetonitrile (90/10) and vortexed vigorously to dissolve. The samples were then transferred to separate polypropylene microcentrifuge tubes and centrifuged at 14000 x g for 10 min. (Fisher Micro 14, S/N M0017580). For each replicate (#1-3) at each timepoint (0 and 2 h), an aliquot sample of each test compound was combined into a single HPLC vial insert (6 total samples) for LC-MS analysis, which is described below.

The target of data set [2] is unphosphorylated VEGF-R2Δ50 (Homo sapiens, UniProt P35968, DEL940-989/E990V). The data set can be described thus: biochemical. Particulars: for inhibition at 0.05 µM: read-out: FLVK ** (% inhibition).
The target in the next data set is LCK tyrosine kinase (Homo sapiens, UniProt P06239, C224D/P223M). Description: LCK spectrophotometric assay. Type of data set: biochemical. The following applies: Table 1; compound concentration 1 µM; read-out: Lck-P* (% inhibition). On the procedure: The spectrophotometric assay was carried out as described above for VEGF-R2, except for the following changes in concentration: LCK = 60 nM, MgCl2 = 0 mM, poly(E4Y1) = 20 mM.

For a further data set, the target named is human FGF-R1 (Homo sapiens, UniProt P11362, C488A/C584S/L457V). Description: FGF-R spectrophotometric assay. Type of data set: biochemical. Particulars: Table 1; compound concentration 1 µM; read-out: FGF-P* (% inhibition). The procedure:
The spectrophotometric assay was carried out as described above for VEGF-R2, except for the following changes in concentration: FGF-R = 50 nM, ATP = 2 mM, and poly(E4Y1) =15 mM.

[3] abbreviates: + albumin, read-out: HUVEC + albumin IC50.

Sequence of LCK tyrosine kinase (P06239 223-509 P223M/C224D): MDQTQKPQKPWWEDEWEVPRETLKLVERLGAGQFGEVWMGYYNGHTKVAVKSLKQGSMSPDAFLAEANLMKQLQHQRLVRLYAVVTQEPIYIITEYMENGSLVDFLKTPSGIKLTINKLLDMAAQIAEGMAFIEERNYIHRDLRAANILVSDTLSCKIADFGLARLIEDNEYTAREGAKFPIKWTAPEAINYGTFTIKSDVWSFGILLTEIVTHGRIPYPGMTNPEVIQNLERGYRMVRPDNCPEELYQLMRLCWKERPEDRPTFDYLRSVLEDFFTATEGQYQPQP
Sequence of human FGF-R1 (P11362 456-766 L457V/C488A/C584S): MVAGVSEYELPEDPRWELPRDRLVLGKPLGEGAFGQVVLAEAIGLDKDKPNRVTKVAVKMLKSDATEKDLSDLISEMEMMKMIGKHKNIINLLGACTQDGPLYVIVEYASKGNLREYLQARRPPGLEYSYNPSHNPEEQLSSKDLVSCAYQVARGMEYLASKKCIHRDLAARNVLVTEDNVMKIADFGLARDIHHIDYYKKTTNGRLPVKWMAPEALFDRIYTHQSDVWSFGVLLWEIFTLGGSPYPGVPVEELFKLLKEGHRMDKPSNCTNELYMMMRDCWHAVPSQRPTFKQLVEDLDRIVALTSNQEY
Sequence of unphosphorylated VEGF-R2Δ50 (P35968 with tags, fused parts or gaps DEL940-989/E990V limits assumed): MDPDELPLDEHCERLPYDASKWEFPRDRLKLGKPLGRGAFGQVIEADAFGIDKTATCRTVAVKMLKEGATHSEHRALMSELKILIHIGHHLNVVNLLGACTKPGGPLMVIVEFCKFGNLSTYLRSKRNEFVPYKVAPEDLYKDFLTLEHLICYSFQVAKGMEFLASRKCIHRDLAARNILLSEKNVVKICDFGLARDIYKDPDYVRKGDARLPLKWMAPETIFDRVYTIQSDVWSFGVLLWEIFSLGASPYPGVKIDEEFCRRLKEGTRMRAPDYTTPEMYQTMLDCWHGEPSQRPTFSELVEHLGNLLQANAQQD

Take `O=C(NCc1ccco1)c1ccccc1Sc1ccc2c(/C=C/c3ccccn3)n[nH]c2c1` [Reference Example 35(bb), 6-[2-((fur-2-yl)methylcarbamoyl)phenylsulfanyl]-3-E-[2-(pyridin-2-yl)ethenyl]-1H-indazole]: the concentration for half-maximal inhibition (IC50) in data set [1] (setting [3]) was 4.1 nM. The “% remain (HLM, 2 h)” value in “in vitro” turned out to be 8%. Also, the inhibition at 0.05 µM in data set [2] is 87%.
On the same counts, the results for `Cc1ccc(CNC(=O)c2ccccc2Sc2ccc3c(/C=C/c4ccccn4)n[nH]c3c2)o1` [Reference Example 35(h), 6-[2-((5-Methylfur-2-yl)methylcarbamoyl)phenylsulfanyl)-3-E-[2-(pyridin-2-yl)ethenyl]-1H-indazole] are 3.6 nM, 9% and 100%.
On the same counts, the results for `CCOCCNC(=O)c1ccccc1Sc1ccc2c(/C=C/c3ccccn3)n[nH]c2c1` [Reference Example 35(z), 6-[2-(2-(Ethoxy)ethylcarbamoyl)phenylsulfanyl]-3-E-[2-(pyridin-2-yl)ethenyl]-1H-indazole] are 7.1 nM, 2% and 95%.
On the same counts, the results for `CCNC(=O)c1ccccc1Sc1ccc2c(/C=C/c3ccccn3)n[nH]c2c1` [Reference Example 35(x), 6-[2-(Ethylcarbamoyl)phenylsulfanyl]-3-E-[2-(pyridin-2-yl)ethenyl]-1H-indazole] are 2 nM, 37% and 75%.
Take `Cn1ccnc1/C=N/NC(=O)c1ccccc1Sc1ccc2c(/C=C/c3ccccn3)n[nH]c2c1` [Reference Example 36(a)]: the IC50 in data set [1] (setting [3]) amounted to 19 nM. Further, the figures for the inhibition at 1 µM at LCK tyrosine kinase and at human FGF-R1 were 19% and 38%, respectively. Moreover, the inhibition at 0.05 µM in data set [2] was 87%.
On the same counts, the results for `O=C(NCCc1cccs1)c1ccccc1Sc1ccc2c(/C=C/c3ccccn3)n[nH]c2c1` [Reference Example 35(hh), 6-[2-(2-(Thien-2-yl)ethylcarbamoyl)phenylsulfanyl]-3-E-[2-(pyridin-2-yl)ethenyl]-1H-indazole] are 7 nM, 34%, 73% and 100%.
Regarding `C=CCn1nc(C)cc1C(=O)Nc1cc(C(=O)c2ccc3c(/C=C/c4ccccn4)n[nH]c3c2)ccc1C` [Reference Example 41(ff), 6-[3-((1-Allyl-3-methyl-1H-pyrazol-5-yl)carboxamido)-4-methylbenzoyl]-3-E-[2-(pyridin-2-yl)ethenyl]-1H-indazole], the IC50 in data set [1] (setting [3]) is 5.6 nM. On LCK tyrosine kinase, the inhibition at 1 µM came out at 15%. In addition, the “% remain (HLM, 2 h)” value in “in vitro” is listed as 68%. The inhibition at 0.05 µM in data set [2] was 98%.
Regarding `O=C(NC1CC1)c1cccc(F)c1Sc1ccc2c(/C=C/c3ccccn3)n[nH]c2c1` [Reference Example 37(b), 6-[6-Fluoro-2-(cyclopropylcarbamoyl)phenylsulfanyl]-3-E-[2-(pyridin-2-yl)ethenyl]-1H-indazole], in data set [1] (setting [3]), the IC50 lay within 30 to 100 nM. For the same compound, the inhibition at 1 µM at LCK tyrosine kinase came to 8%; on human FGF-R1, 36%. Moreover, in data set [2], the inhibition at 0.05 µM came out at 48%.
In the same order, the values of `CCc1cc(C(=O)Nc2cc(C(=O)c3ccc4c(/C=C/c5ccccn5)n[nH]c4c3)ccc2C)n(C)n1` [Reference Example 41(jj), 6-[3-((3-Ethyl-1-methyl-1H-pyrazol-5-yl)carboxamido)-4. methylbenzoyl]-3-E-[2-(pyridin-2-yl)ethenyl]-1H-indazole] are 21 nM, 19%, 81% and 87%.
In the case of `COc1cccc(CNC(=O)c2ccccc2Sc2ccc3c(/C=C/c4ccccn4)n[nH]c3c2)c1` [Reference Example 35(aa)], in data set [1] (setting [3]), the IC50 was found to be 5 nM. In addition, in “in vitro”, the “% remain (HLM, 2 h)” value was 15%. In addition, in data set [2], the inhibition at 0.05 µM turned out to be 99%.
Take `CC(C)COC(=O)Nc1cccc(C(=O)c2ccc3c(/C=C/c4ccccn4)n[nH]c3c2)c1` [Reference Example 41(y)]: the IC50 in data set [1] (setting [3]) was in the range of 30 to 100 nM. Also, the inhibition at 1 µM at LCK tyrosine kinase stood at 61%; at human FGF-R1, 86%. For the same compound, the inhibition at 0.05 µM in data set [2] stood at 98%.
Take `COc1ccc(CNC(=O)c2ccccc2Sc2ccc3c(/C=C/c4ccccn4)n[nH]c3c2)cc1` [Reference Example 35(g)]: the IC50 in data set [1] (setting [3]) was approximately 15 nM. For the same compound, in the data set “in vitro”, the “% remain (HLM, 2 h)” value came out at 53%. For the same compound, the inhibition at 0.05 µM in data set [2] came out at 100%.
With `C[C@@H]1C[C@H]1C(=O)Nc1cccc(C(=O)c2ccc3c(/C=C/c4ccccn4)n[nH]c3c2)c1` (racemic) [Reference Example 41(h), 6-[3-((2-RS-trans-methylcyclopropyl)carboxamido)benzoyl]-3-E-[2-(pyridin-2-yl)ethenyl]-1H-indazole], the IC50 was determined as 25 nM in data set [1] (setting [3]) and 2 nM in data set [1] (read-out: HUVEC IC50). The inhibition at 1 µM on LCK tyrosine kinase was 30%. Besides, the remaining at 2 h, 5 µM in “in vitro” (read-out: % remain (HLM, 2 h)) amounted to 8%. The inhibition at 0.05 µM in data set [2] came to 90%.
In the case of `O=C(N[C@@H]1C[C@H]1c1ccccc1)c1ccccc1Sc1ccc2c(/C=C/c3ccccn3)n[nH]c2c1` (racemic) [Reference Example 34], the IC50 in data set [1] (setting [3]) amounted to 15 nM. The inhibition at 1 µM stood at 78% on LCK tyrosine kinase and 95% at human FGF-R1. For the same compound, the inhibition at 0.05 µM in data set [2] was 97%.
In the same order, the values of `CC(C)NC(=O)c1ccccc1Sc1ccc2c(/C=C/c3ccccn3)n[nH]c2c1` [Reference Example 35(b), 6-[2-(i-Propylcarbamoyl)phenylsulfanyl]-3-E-[2-(pyridin-2-yl)ethenyl]-1H-indazole] are 35 nM, 12%, 59% and 49%.
`Cc1ccccc1C(=O)NNC(=O)c1ccccc1Sc1ccc2c(/C=C/c3ccccn3)n[nH]c2c1` [Reference Example 35(q), 6-[2-((2-Methylphenylhydrazido)carbonyl)phenylsulfanyl]-3-E-[2-(pyridin-2-yl)ethenyl]-1H-indazole]: the IC50 in data set [1] (setting [3]) is 18 nM. The inhibition at 1 µM was 42% on LCK tyrosine kinase and 51% at human FGF-R1. In data set [2], the inhibition at 0.05 µM worked out at 92%.
`C=C(C)CNC(=O)c1ccccc1Sc1ccc2c(/C=C/c3ccccn3)n[nH]c2c1` [Reference Example 35(ee), 6-[2-(2-Methyl-2-propenylcarbamoyl)phenylsulfanyl]-3-E-[2-(pyridin-2-yl)ethenyl]-1H-indazole]: in data set [1] (setting [3]), the IC50 was 3 nM. The “% remain (HLM, 2 h)” value in “in vitro” stood at 13%. Moreover, the inhibition at 0.05 µM in data set [2] was determined as 82%.
On the same counts, the results for `C=CCNC(=O)c1ccccc1Sc1ccc2c(/C=C/c3ccccn3)n[nH]c2c1` [Reference Example 35(u), 6-[2-(Allylcarbamoyl)phenylsulfanyl]-3-E-[2-(pyridin-2-yl)ethenyl]-1H-indazole] are 2.8 nM, 27% and 79%.
Regarding `O=C(NCc1ccccc1F)c1ccccc1Sc1ccc2c(/C=C/c3ccccn3)n[nH]c2c1` [Reference Example 35(f)], the “% remain (HLM, 2 h)” value in “in vitro” is 15%. Moreover, the inhibition at 0.05 µM in data set [2] stood at 100%.
Take `Cc1cc(C(=O)Nc2cc(C(=O)c3ccc4c(/C=C/c5ccccn5)n[nH]c4c3)ccc2C)n(C)n1` [Reference Example 41(hh), 6-[3-((1,3-Dimethyl-1H-pyrazol-5-yl)carboxamido)-4-methylbenzoyl]-3-E-[2-(pyridin-2-yl)ethenyl]-1H-indazole]: the 50% inhibitory concentration (IC50) in data set [1] (setting [3]) came to 3.9 nM. Besides, the inhibition at 1 µM is 13% on LCK tyrosine kinase and 74% at human FGF-R1. In data set [2], the inhibition at 0.05 µM came out at 98%.
With `CCc1cc(C(=O)Nc2cccc(C(=O)c3ccc4c(/C=C/c5ccccn5)n[nH]c4c3)c2)n(C)n1` [Reference Example 41(v), 6-[3-((3-Ethyl-1-methyl-1H-pyrazol-5-yl)carboxamido)benzoyl]-3-E-[2-(pyridin-2-yl)ethenyl)-1H-indazole], the IC50 in data set [1] (setting [3]) is 12 nM. Also, the inhibition at 1 µM at LCK tyrosine kinase was determined as 52%; in data set [2] (read-out: FLVK ** (% inhibition, cell marked *)) it was 68%; at human FGF-R1 it was 68%.

As usually defined, the IC50 is the concentration needed to halve the response being measured. What is called inhibition is the percentage by which the read-out fell short of the control.
